Values of other authors as cited in patent publication US8173175B2, “Ethanolic and/or aqueous composition of an ammoniacal solution of alkaline metal salts of azide, mainly sodium and potassium” (priority 2005, dated 2012).

Tests used:
[1] = test system: catalase; conditions: grapevine buds (Nir and Lavee 1993); for H2CN2 according to the manufacturer
[2] = test system: grapevine buds; conditions: Nir and Lavee 1993

Row | SMILES | inhibition of catalase activity [1] | effect on the budding [2] | European Union toxicity classification (EU catalogue) | USEPA toxicity category (United States Environmental Protection Agency classification)
1 | Nc1ncn[nH]1 [1,4-triazolamine] | able of inhibit the catalase activity | does not have any effect on the budding | – | –
2 | N#CN [H2CN2, hydrogen cyanamide] | inhibition of the enzyme catalase | – | toxic, harmful compound in contact with the skin and eyes and skin irritant | category I (acute toxic)
